Assay results as given in article PMC3621900 (Nature Communications, 2013).

Test system: nicotinic acetylcholine receptor (nAChR)
Assay: whole-cell patch clamp
Design: species or system Apis mellifera

Compound: O=[N+]([O-])NC1=NCCN1Cc1ccc(Cl)nc1 [imidacloprid]
- IC50: 295 nM
